Source: PMC10518255, “A first-in-class pan-lysyl oxidase inhibitor impairs stromal remodeling and enhances gemcitabine response and survival in pancreatic cancer” (Nature Cancer, 2023)
Values joined by “and” are separate entries in the source; they are usually repeats but may differ in a detail not shown here. Equal values may be shown once.

Experiments:
[1] = system: human pancreatic cancer CAF remodeled organotypic matrices; assay: Matrix stiffness by unconfined compression testing of organotypic matrices; assay type: cell-based; conditions: human pancreatic cancer CAFs, PXS-5505 during remodeling
Method: Unconfined compression of 3D organotypic collagen matrices treated with or without PXS-5505 was performed on a TA Instruments Dynamic Hybrid Rheometer (DHR-3, TA Instruments). Remodeled collagen matrices were placed between upper and lower parallel plate geometries. A constant linear compressive rate of 5 µm s^−1 was applied to the samples and axial force (N) and gap (mm) were collected every 0.01 s. Data were processed and a stress–strain curve for each replicate was obtained. Bulk elastic modulus (kPa) was obtained as the gradient of the linear region of the stress–strain curve corrected for cross-sectional area of sample and normalized to control. Data points represent biological replicates. […]
Extended Data Fig. 4 PXS-5505 inhibits collagen cross-linking by PDAC CAFs in vitro resulting in decreased cancer cell invasion. a. […] Chemical structures of lysyl oxidase family catalyzed hydroxyallysine or allysine residues and the subsequent divalent and trivalent bonds that are formed that can be quantified by mass spectrometry. c. […] Relative fold expression of LOXL family members compared to LOX were determined by 2^–∆∆Ct approach. f. […] Comparison of measured area of matrices between control, PXS-5120 and PXS-5505 treatment groups (n = 3) over time. i. […] Representative images of invasion of KPC cancer cells into a contracted organotypic matrix as determined by H&E staining. […]

[2] = system: cytochrome P450 enzymes; assay: Cytochrome P450 inhibition
[3] = system: KPC CAFs; assay: 3D organotypic matrix contraction assay; assay type: cell-based, mouse; set-up: measured area of matrices: unit not given here; conditions: for measured area of matrices: per replicate, n = 3
Method: Fig. 3 PXS-5505 inhibition of CAF remodeling in vitro. a, Quantitative PCR with reverse transcription (qRT–PCR) showing in vitro comparison of KPC CAF relative expression of lysyl oxidase family members compared to KPC CCs from the same model (n = 3 biologically independent samples). Comparisons were determined by 2^–∆∆Ct approach. b, Representative images of 3D organotypic matrix contraction assay at days 2, 6 and 12 in the absence (gray) or presence (pink) of PXS-5505 (30 µM). Scale bars, 5 mm. Comparison of measured area of matrices between control and PXS-5505 treatment groups over time (n = 3 technical samples examined over three biologically independent samples). Data are mean ± s.d. c, Concentration of immature divalent DHLNL and mature trivalent Pyr collagen crosslinks determined by LC–MS from control and PXS-5505-treated organotypic matrices at day 12 (n = 3 technical samples examined over two biologically independent samples). Data are mean ± s.d. […] Data are presented as mean ± s.d. […] Comparison of number of CCs invaded per field of view (FOV) as determined by H&E and PanCK staining (nine images taken from three technical samples from each of three biologically independent contracted matrices), normalized to control. Data are mean ± s.d. Scale bars, 100 μm. […] Source data
High-purity rat tail collagen for 3D organotypic assays was acid extracted following previously published methodology. The 12-day organotypic assays were carried out as described previously. In brief, 2 × 10^5 KPC CAFs were embedded in 2.5 ml 1.5 mg ml^−1 rat tail collagen and allowed to remodel for 12 days in a six-well plate in DMEM supplemented with 10% FBS and 1% penicillin–streptomycin in 21% O2/5% CO2 (Extended Data Fig. 4a). For human pancreatic cancer CAFs, 3.45 × 10^5 cells were embedded into 1.25 ml 1.5 mg ml^−1 rat tail collagen and allowed to remodel for 12 days in a 12-well plate in IMDM supplemented with 4 mM glutamine and 10% FBS in 21% O2/5% CO2.
Extended Data Fig. 4 PXS-5505 inhibits collagen cross-linking by PDAC CAFs in vitro resulting in decreased cancer cell invasion. a. Schematic of organotypic matrix remodeling assay whereby CAFs are embedded into a 3D collagen matrix and growth media supplemented with or without PXS-5505 to inhibit lysyl oxidase family activity b. Chemical structures of lysyl oxidase family catalyzed hydroxyallysine or allysine residues and the subsequent divalent and trivalent bonds that are formed that can be quantified by mass spectrometry. c. Representative images of 3D organotypic matrix contraction by human pancreatic cancer CAFs at days 2, 6 and 12 in the absence (gray) and presence (pink) of PXS-5505 (30 µM). Scale bars = 5 mm. […] Data presented as mean values +/− SD. d. […] Data presented as mean values +/− SD. Relative fold expression of LOXL family members compared to LOX were determined by 2^–∆∆Ct approach. f. Schematic of cancer cell invasion in a 3D organotypic matrix assay whereby cancer cells are seeded to the surface of a remodeled collagen plug and placed at an air–liquid interface and allowed to invade into the remodeled matrix. […] Scale bars = 100 μm. g. […] Representative images of 3D organotypic matrix contraction assay at days 2, 6 and 12 of control (gray) and presence of PXS-5120 (blue) and PXS-5505 (pink). Scale bars = 5 mm. Comparison of measured area of matrices between control, PXS-5120 and PXS-5505 treatment groups (n = 3) over time. i. […] Representative images of invasion of KPC cancer cells into a contracted organotypic matrix as determined by H&E staining. […] Source data

Cl.Cl.NC/C=C(\F)CS(=O)(=O)c1cccc2cccnc12.O [PXS-5505, (Z)-3-fluoro-4-(quinolin-8-ylsulfonyl)but-2-en-1-amine dihydrochloride monohydrate]
stiffness (bulk modulus) of remodeled organotypic matrices [1]: decrease in stiffness (bulk modulus)
inhibition of cytochrome P450 enzymes [2]: does not inhibit
matrix contraction ([3]; KPC CAFs, PXS-5505 30 µM, days 2, 6 and 12): no macroscopic effect on matrix contraction
measured area of matrices ([3]; time 0 (unit of time not given)): 9.616
measured area of matrices ([3]; time 1 (unit of time not given)): 9.616
measured area of matrices ([3]; time 2 (unit of time not given)): 9.561 and 9.616 (2×)
measured area of matrices ([3]; time 3 (unit of time not given)): 9.0213 and 9.561 and 9.616
measured area of matrices ([3]; time 4 (unit of time not given)): 6.466 and 5.808 and 8.601
measured area of matrices ([3]; time 5 (unit of time not given)): 4.597 and 3.696 and 6.971
measured area of matrices ([3]; time 6 (unit of time not given)): 3.299 and 2.6 and 5.471
measured area of matrices ([3]; time 7 (unit of time not given)): 2.954 and 2.216 and 4.409
measured area of matrices ([3]; time 8 (unit of time not given)): 2.6 and 1.886 and 3.595
measured area of matrices ([3]; time 9 (unit of time not given)): 1.96 and 1.5386 and 2.216
measured area of matrices ([3]; time 10 (unit of time not given)): 1.327 and 1.266 and 1.583
measured area of matrices ([3]; time 11 (unit of time not given)): 1.149 and 1.168 and 1.41
measured area of matrices ([3]; time 12 (unit of time not given)): 1.075 and 1.112 and 1.188
